Literature values as cited in paper PMC11195919 (Journal of pharmacy & pharmaceutical sciences : a …, 2021).

What was measured:
OATP1B3 = settings: read-out: Km of CCK-8 transport by OATP1B3

For cholecystokinin octapeptide [CCK-8], the Km (OATP1B3) is given as 3.82 µM, the “linear range of initial uptake of CCK-8” value (primary rat hepatocyte; non-transduced rat hepatocytes) is given as “at least 1 min” and the Km (primary rat hepatocyte; read-out: Km of CCK-8 uptake in primary rat hepatocyte) is given as 6.7 µM.
